pKi: −log10 of the molar value.
Molecular target: HPK1 (Homo sapiens (Human), UniProt Q92918)
Experiment: HPK1 Kinase Binding Assay
Summary of the method: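 Active HPK1 (added as 4 nM solution) was combined with compound (3-fold, 11-point series) and tracer 222 (18 nM) plus Eu-anti-GST antibody (4 nM) in 50 mM HEPES pH 7.5 with MgCl2 and DTT. After 1 h at 25 °C plates were read. Ki values were derived.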

Chain of HPK1 (Q92918 1-346): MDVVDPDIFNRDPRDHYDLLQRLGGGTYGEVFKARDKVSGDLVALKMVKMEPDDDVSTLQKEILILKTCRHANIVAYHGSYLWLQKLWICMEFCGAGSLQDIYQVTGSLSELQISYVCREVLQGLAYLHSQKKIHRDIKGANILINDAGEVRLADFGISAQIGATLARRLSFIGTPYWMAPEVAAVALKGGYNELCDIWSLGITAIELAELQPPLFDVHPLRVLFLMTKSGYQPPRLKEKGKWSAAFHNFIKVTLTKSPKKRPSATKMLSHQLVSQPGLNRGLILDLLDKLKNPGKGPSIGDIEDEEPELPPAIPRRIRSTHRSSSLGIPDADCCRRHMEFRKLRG

| Structure (SMILES) | pKi |
| --- | --- |
| CN1CCN(c2ccc(-c3n[nH]c4cnc(-c5c(F)cc6c(c5F)C(O)CC6)cc34)cn2)CC1 (centres unmarked) [Example 213, 5,7-Difluoro-6-(3-(6-(4-methylpiperazin-1-yl)pyridin-3-yl)-1H-pyrazolo[3,4-c]pyridin-5-yl)-2,3-dihydro-1H-inden-1-ol] | ≥ 7.00 |
| CNC1CCc2cc(F)c(-c3ncc4[nH]nc(-c5cnn(C)c5)c4c3OC)c(F)c2C1 (centres unmarked) [Example 214, 6,8-Difluoro-7-(4-methoxy-3-(1-methyl-1H-pyrazol-4-yl)-1H-pyrazolo[3,4-c]pyridin-5-yl)-N-methyl-1,2,3,4-tetrahydronaphthalen-2-amine] | ≥ 7.00 |
| CNCc1cc(F)c(-c2ncc3[nH]nc(-c4cnn(C)c4)c3c2OC)c(F)c1 [Example 215, 1-(3,5-Difluoro-4-(4-methoxy-3-(1-methyl-1H-pyrazol-4-yl)-1H-pyrazolo[3,4-c]pyridin-5-yl)phenyl)-N-methylmethanamine] | ≥ 7.00 |
| Cn1cc(-c2n[nH]c3cnc(-c4c(F)cc5c(c4F)C(N)CC5)c(F)c23)cn1 (centres unmarked) [Example 216, 5,7-Difluoro-6-(4-fluoro-3-(1-methyl-1H-pyrazol-4-yl)-1H-pyrazolo[3,4-c]pyridin-5-yl)-2,3-dihydro-1H-inden-1-amine] | ≥ 7.00 |
| CNCc1cc(F)c(-c2cc3c(-c4cnc(N5CCN(C)CC5)nc4)n[nH]c3cn2)c(F)c1 [Example 217, 1-(3,5-Difluoro-4-(3-(2-(4-methylpiperazin-1-yl)pyrimidin-5-yl)-1H-pyrazolo[3,4-c]pyridin-5-yl)phenyl)-N-methylmethanamine] | ≥ 7.00 |
| CNCc1cc(F)c(-c2cc3c(-c4cnc(N5CCC(O)CC5)nc4)n[nH]c3cn2)c(F)c1 [Example 218, 1-(5-(5-(2,6-Difluoro-4-((methylamino)methyl)phenyl)-1H-pyrazolo[3,4-c]pyridin-3-yl)pyrimidin-2-yl)piperidin-4-ol] | ≥ 7.00 |
| CNCc1cc(F)c(-c2cc3c(-c4cncc(N5CCN(C)CC5)c4)n[nH]c3cn2)c(F)c1 [Example 219, 1-(3,5-Difluoro-4-(3-(5-(4-methylpiperazin-1-yl)pyridin-3-yl)-1H-pyrazolo[3,4-c]pyridin-5-yl)phenyl)-N-methylmethanamine] | ≥ 7.00 |
| CNC1CCc2c1cc(C)c(-c1cc3c(-c4cnn(C)c4)n[nH]c3cn1)c2F (centres unmarked) [Example 220, 4-Fluoro-N,6-dimethyl-5-(3-(1-methyl-1H-pyrazol-4-yl)-1H-pyrazolo[3,4-c]pyridin-5-yl)-2,3-dihydro-1H-inden-1-amine] | ≥ 7.00 |
| Cc1c(CN2CC(C)(C)C2)ccc(F)c1-c1cc2c(-c3cnn(C)c3)n[nH]c2cn1 [Example 221, 5-(3-((3,3-Dimethylazetidin-1-yl)methyl)-6-fluoro-2-methylphenyl)-3-(1-methyl-1H-pyrazol-4-yl)-1H-pyrazolo[3,4-c]pyridine] | ≥ 7.00 |
| CO[C@H]1C[C@H](NCc2ccc(F)c(-c3cc4c(-c5cnn(C)c5)n[nH]c4cn3)c2C)C1 [Example 222, trans-N-(4-Fluoro-2-methyl-3-(3-(1-methyl-1H-pyrazol-4-yl)-1H-pyrazolo[3,4-c]pyridin-5-yl)benzyl)-3-methoxycyclobutanamine] | ≥ 7.00 |
| Cc1c(CNC2CC(C)(C)C2)ccc(F)c1-c1cc2c(-c3cnn(C)c3)n[nH]c2cn1 [Example 223, N-(4-Fluoro-2-methyl-3-(3-(1-methyl-1H-pyrazol-4-yl)-1H-pyrazolo[3,4-c]pyridin-5-yl)benzyl)-3,3-dimethylcyclobutanamine] | ≥ 7.00 |
| Cc1c(CNCC2(C)CC2)ccc(F)c1-c1cc2c(-c3cnn(C)c3)n[nH]c2cn1 [Example 224, N-(4-Fluoro-2-methyl-3-(3-(1-methyl-1H-pyrazol-4-yl)-1H-pyrazolo[3,4-c]pyridin-5-yl)benzyl)-1-(1-methylcyclopropyl)methanamine] | ≥ 7.00 |
| CNCc1ccc(F)c(-c2cc3c(-c4cnn(C)c4)n[nH]c3cn2)c1C(F)(F)F [Example 225, 1-(4-Fluoro-3-(3-(1-methyl-1H-pyrazol-4-yl)-1H-pyrazolo[3,4-c]pyridin-5-yl)-2-(trifluoromethyl)phenyl)-N-methylmethanamine] | ≥ 7.00 |
| Cc1cc(C2COCCN2)cc(F)c1-c1cc2c(-c3cnn(C)c3)n[nH]c2cn1 (centres unmarked) [Example 234, 3-(3-Fluoro-5-methyl-4-(3-(1-methyl-1H-pyrazol-4-yl)-1H-pyrazolo[3,4-c]pyridin-5-yl)phenyl)morpholine] | ≥ 7.00 |
| CNCc1cc(F)c(-c2cc3c(-c4cnn(C)c4)n[nH]c3cn2)c(C(F)F)c1 [Example 235, 1-(3-(Difluoromethyl)-5-fluoro-4-(3-(1-methyl-1H-pyrazol-4-yl)-1H-pyrazolo[3,4-c]pyridin-5-yl)phenyl)-N-methylmethanamine] | ≥ 7.00 |
| CCNCc1ccc(F)c(-c2cc3c(-c4cnn(C)c4)n[nH]c3cn2)c1C [Example 236, N-(4-Fluoro-2-methyl-3-(3-(1-methyl-1H-pyrazol-4-yl)-1H-pyrazolo[3,4-c]pyridin-5-yl)benzyl)ethanamine] | ≥ 7.00 |

Results, then the compound that gave them:

| pKi | Structure (SMILES) |
| --- | --- |
| ≥ 7.00 | CNC1CCc2c1cc(F)c(-c1cc3c(-c4ccc(N5CCN(C)CC5)cc4)n[nH]c3cn1)c2F (centres unmarked) [Example 197, 4,6-Difluoro-N-methyl-5-(3-(4-(4-methylpiperazin-1-yl)phenyl)-1H-pyrazolo[3,4-c]pyridin-5-yl)-2,3-dihydro-1H-inden-1-amine] |
| ≥ 7.00 | CNC1CCc2c1cc(F)c(-c1cc3c(-c4cnn(C)c4)n[nH]c3cn1)c2F (centres unmarked) [Example 198, 4,6-Difluoro-N-methyl-5-(3-(1-methyl-1H-pyrazol-4-yl)-1H-pyrazolo[3,4-c]pyridin-5-yl)-2,3-dihydro-1H-inden-1-amine] |
| ≥ 7.00 | CNC1CCc2cc(F)c(-c3cc4c(-c5ccc(N6CCN(C)CC6)cc5)n[nH]c4cn3)c(F)c2C1 (centres unmarked) [Example 199, 6,8-Difluoro-N-methyl-7-(3-(4-(4-methylpiperazin-1-yl)phenyl)-1H-pyrazolo[3,4-c]pyridin-5-yl)-1,2,3,4-tetrahydronaphthalen-2-amine] |
| ≥ 7.00 | CNC1CCc2cc(F)c(-c3cc4c(-c5cnn(C)c5)n[nH]c4cn3)c(F)c2C1 (centres unmarked) [Example 200, 6,8-Difluoro-N-methyl-7-(3-(1-methyl-1H-pyrazol-4-yl)-1H-pyrazolo[3,4-c]pyridin-5-yl)-1,2,3,4-tetrahydronaphthalen-2-amine] |
| ≥ 7.00 | CNC(=O)c1ccc(-c2n[nH]c3cnc(-c4c(F)cc5c(c4F)CCCC5NC)cc23)cc1 (centres unmarked) [Example 201, 4-(5-(1,3-Difluoro-5-(methylamino)-5,6,7,8-tetrahydronaphthalen-2-yl)-1H-pyrazolo[3,4-c]pyridin-3-yl)-N-methylbenzamide] |
| ≥ 7.00 | CNC1CCCc2c1cc(F)c(-c1cc3c(-c4cnn(C)c4)n[nH]c3cn1)c2F (centres unmarked) [Example 202, 5,7-Difluoro-N-methyl-6-(3-(1-methyl-1H-pyrazol-4-yl)-1H-pyrazolo[3,4-c]pyridin-5-yl)-1,2,3,4-tetrahydronaphthalen-1-amine] |
| ≥ 7.00 | CN1CCN(c2ccc(-c3n[nH]c4cnc(-c5c(F)cc6c(c5F)CCCC6N)cc34)cn2)CC1 (centres unmarked) [Example 203, 5,7-Difluoro-6-(3-(6-(4-methylpiperazin-1-yl)pyridin-3-yl)-1H-pyrazolo[3,4-c]pyridin-5-yl)-1,2,3,4-tetrahydronaphthalen-1-amine] |
| ≥ 7.00 | CNC(=O)c1ccc(-c2n[nH]c3cnc(-c4c(F)cc5c(c4F)C(NC)CC5)cc23)cc1 (centres unmarked) [Example 204, 4-(5-(4,6-Difluoro-3-(methylamino)-2,3-dihydro-1H-inden-5-yl)-1H-pyrazolo[3,4-c]pyridin-3-yl)-N-methylbenzamide] |
| ≥ 7.00 | CNC1CCc2cc(F)c(-c3cc4c(-c5ccc(N6CCN(C)CC6)cc5)n[nH]c4cn3)c(F)c21 (centres unmarked) [Example 205, 5,7-Difluoro-N-methyl-6-(3-(4-(4-methylpiperazin-1-yl)phenyl)-1H-pyrazolo[3,4-c]pyridin-5-yl)-2,3-dihydro-1H-inden-1-amine] |
| ≥ 7.00 | COc1c(-c2cc3c(-c4ccc(N5CCN(C)CC5)cc4)n[nH]c3cn2)c(F)cc2c1C(N)CC2 (centres unmarked) [Example 206, 5-Fluoro-7-methoxy-6-(3-(4-(4-methylpiperazin-1-yl)phenyl)-1H-pyrazolo[3,4-c]pyridin-5-yl)-2,3-dihydro-1H-inden-1-amine] |
| ≥ 7.00 | COc1c(-c2cc3c(-c4cnn(C)c4)n[nH]c3cn2)c(F)cc2c1C(N)CC2 (centres unmarked) [Example 207, 5-Fluoro-7-methoxy-6-(3-(1-methyl-1H-pyrazol-4-yl)-1H-pyrazolo[3,4-c]pyridin-5-yl)-2,3-dihydro-1H-inden-1-amine] |
| ≥ 7.00 | CNC(=O)c1ccc(-c2n[nH]c3cnc(-c4c(F)ccc5c4CCCC5NC)cc23)cn1 (centres unmarked) [Example 208, 5-(5-(2-Fluoro-5-(methylamino)-5,6,7,8-tetrahydronaphthalen-1-yl)-1H-pyrazolo[3,4-c]pyridin-3-yl)-N-methylpicolinamide] |
| ≥ 7.00 | CNC1CCCc2c1ccc(F)c2-c1cc2c(-c3ccc(N4CCN(C)CC4)cc3)n[nH]c2cn1 (centres unmarked) [Example 209, 6-Fluoro-N-methyl-5-(3-(4-(4-methylpiperazin-1-yl)phenyl)-1H-pyrazolo[3,4-c]pyridin-5-yl)-1,2,3,4-tetrahydronaphthalen-1-amine] |
| ≥ 7.00 | Cn1cc(-c2n[nH]c3cnc(-c4c(F)ccc5c4CCCC5N)cc23)cn1 (centres unmarked) [Example 210, 6-Fluoro-5-(3-(1-methyl-1H-pyrazol-4-yl)-1H-pyrazolo[3,4-c]pyridin-5-yl)-1,2,3,4-tetrahydronaphthalen-1-amine] |
| ≥ 7.00 | CN1CCN(c2ncc(-c3n[nH]c4cnc(-c5c(F)cc(CC#N)cc5F)cc34)cn2)CC1 [Example 211, 2-(3,5-Difluoro-4-(3-(2-(4-methylpiperazin-1-yl)pyrimidin-5-yl)-1H-pyrazolo[3,4-c]pyridin-5-yl)phenyl)acetonitrile] |
| ≥ 7.00 | Cn1cc(-c2n[nH]c3cnc(-c4c(F)cc5c(c4F)C(O)CC5)cc23)cn1 (centres unmarked) [Example 212, 5,7-Difluoro-6-(3-(1-methyl-1H-pyrazol-4-yl)-1H-pyrazolo[3,4-c]pyridin-5-yl)-2,3-dihydro-1H-inden-1-ol] |

— patent US10435405B2, “Pyrazolopyridine compounds and uses thereof” (Incyte Corporation, priority 2016, dated 2019)
